≈ marks a conversion by molar mass, not a printed value.
What was measured:
Enterococcus faecalis = test: Antibacterial activity against Enterococcus faecalis; format: functional
Enterococcus faecium = test: Antibacterial activity against Enterococcus faecium; format: functional
Staphylococcus aureus = test: Antibacterial activity against Staphylococcus aureus; format: functional
Escherichia coli [1] = test: Antibacterial activity against Escherichia coli infected in microbiologically evaluable patient with UTI assessed as cure rate at 500 mg, iv administered every 8 hrs for 10 days measured at test-of-cure visit; format: functional
Escherichia coli [2] = test: Antibacterial activity against levofloxacin-resistant Escherichia coli infected in microbiologically evaluable patient with UTI assessed as cure rate at 500 mg, iv administered every 8 hrs for 10 days measured at test-of-cure visit; format: functional
Escherichia coli [3] = test: Antibacterial activity against levofloxacin-resistant Escherichia coli infected in clinically evaluable patient with UTI assessed as cure rate at 500 mg, iv administered every 8 hrs for 10 days measured at test-of-cure visit; format: functional
Klebsiella pneumoniae = test: Antibacterial activity against Klebsiella pneumoniae infected in microbiologically evaluable patient with UTI assessed as cure rate at 500 mg, iv administered every 8 hrs for 10 days measured at test-of-cure visit; format: functional
Proteus mirabilis = test: Antibacterial activity against Proteus mirabilis infected in microbiologically evaluable patient with UTI assessed as cure rate at 500 mg, iv administered every 8 hrs for 10 days measured at test-of-cure visit; format: functional
Escherichia coli [4] = test: Antibacterial activity against Escherichia coli isolated from patient with urinary tract infection receiving drug at 500 mg, iv administered every 8 hrs for 10 days measured after post drug therapy; format: functional; settings: Urine
Serratia marcescens = test: Antibacterial activity against Serratia marcescens isolated from patient with urinary tract infection receiving drug at 500 mg, iv administered every 8 hrs for 10 days measured after post drug therapy; format: functional; settings: Urine
Enterococcus avium = test: Antibacterial activity against doripenem-resistant Enterococcus avium; format: functional
Homo sapiens [5] = test: Treatment emergent adverse event in intent-to-treat patient with complicated urinary tract infection assessed as headache at 500 […], iv administered every 8 hrs for 10 days; format: ADME, organism-based, Urine; set-up: route intravenous; settings: in vivo
Homo sapiens [6] = test: Treatment emergent adverse event in intent-to-treat patient with complicated urinary tract infection assessed as constipation at 500 […], iv administered every 8 hrs for 10 days; format: ADME, organism-based; set-up: route intravenous; settings: in vivo
Homo sapiens [7] = test: Treatment emergent adverse event in intent-to-treat patient with complicated urinary tract infection assessed as diarrhea at 500 […], iv administered every 8 hrs for 10 days; format: ADME, organism-based; set-up: route intravenous; settings: in vivo
Homo sapiens [8] = test: Treatment emergent adverse event in intent-to-treat patient with complicated urinary tract infection assessed as vomiting at 500 […], iv administered every 8 hrs for 10 days; format: organism-based; set-up: route intravenous; settings: in vivo
Homo sapiens [9] = test: Treatment emergent adverse event in intent-to-treat patient with complicated urinary tract infection assessed as upper abdominal pain at 500 […], iv administered every 8 hrs for 10 days; format: organism-based; set-up: route intravenous; settings: in vivo
Homo sapiens [10] = test: Treatment emergent adverse event in intent-to-treat patient with complicated urinary tract infection assessed as nausea at 500 […], iv administered every 8 hrs for 10 days; format: organism-based; set-up: route intravenous; settings: in vivo
Homo sapiens [11] = test: Treatment emergent adverse event in intent-to-treat patient with complicated urinary tract infection assessed as phlebitis at 500 […], iv administered every 8 hrs for 10 days; format: organism-based; set-up: route intravenous; settings: in vivo
Homo sapiens [12] = test: Treatment emergent adverse event in intent-to-treat patient with complicated urinary tract infection assessed as insomnia at 500 […], iv administered every 8 hrs for 10 days; format: ADME, organism-based, Urine; set-up: route intravenous; settings: in vivo
Homo sapiens [13] = test: Treatment emergent adverse event in intent-to-treat patient with complicated urinary tract infection assessed as urinary tract infection at 500 […], iv administered every 8 hrs for 10 days; format: ADME, organism-based, Urine; set-up: route intravenous; settings: in vivo
Homo sapiens [14] = test: Treatment emergent adverse event in intent-to-treat patient with complicated urinary tract infection assessed as asymptomatic bacteriuria at 500 […], iv administered every 8 hrs for 10 days; format: ADME, organism-based, Urine; set-up: route intravenous; settings: in vivo
Homo sapiens [15] = test: Treatment emergent adverse event in intent-to-treat patient with complicated urinary tract infection assessed as back pain at 500 […], iv administered every 8 hrs for 10 days; format: organism-based; set-up: route intravenous; settings: in vivo
Homo sapiens [16] = test: Treatment emergent adverse event in intent-to-treat patient with complicated urinary tract infection assessed as hypokalemia at 500 […], iv administered every 8 hrs for 10 days; format: ADME, organism-based, Urine; set-up: route intravenous; settings: in vivo
Homo sapiens [17] = test: Treatment emergent adverse event in intent-to-treat patient with complicated urinary tract infection assessed as abdominal pain at 500 […], iv administered every 8 hrs for 10 days; format: ADME, organism-based, Urine; set-up: route intravenous; settings: in vivo
Homo sapiens [18] = test: Treatment emergent adverse event in intent-to-treat patient with complicated urinary tract infection assessed as >=1 adverse event at 500 mg/kg, iv administered every 8 hrs for 10 days; format: organism-based, Urine; set-up: dose 500 mg/kg, route intravenous; settings: in vivo
Homo sapiens [19] = test: Drug related treatment emergent adverse event in intent-to-treat patient with complicated urinary tract infection assessed as >=1 adverse event at 500 mg/kg, iv administered every 8 hrs for 10 days; format: toxicity, organism-based, Urine; set-up: dose 500 mg/kg, route intravenous; settings: in vivo
Homo sapiens [20] = test: Drug related treatment emergent adverse event in intent-to-treat patient with complicated urinary tract infection assessed as headache at 500 […], iv administered every 8 hrs for 10 days; format: toxicity, organism-based, Urine; set-up: dose 500 […], route intravenous; settings: in vivo
Homo sapiens [21] = test: Drug related treatment emergent adverse event in intent-to-treat patient with complicated urinary tract infection assessed as diarrhea at 500 […], iv administered every 8 hrs for 10 days; format: toxicity, organism-based; set-up: dose 500 […], route intravenous; settings: in vivo
Homo sapiens [22] = test: Drug related treatment emergent adverse event in intent-to-treat patient with complicated urinary tract infection assessed as upper abdominal pain at 500 […], iv administered every 8 hrs for 10 days; format: toxicity, organism-based; set-up: dose 500 […], route intravenous; settings: in vivo
Homo sapiens [23] = test: Drug related treatment emergent adverse event in intent-to-treat patient with complicated urinary tract infection assessed as nausea at 500 […], iv administered every 8 hrs for 10 days; format: toxicity, organism-based; set-up: dose 500 […], route intravenous; settings: in vivo
Homo sapiens [24] = test: Drug related treatment emergent adverse event in intent-to-treat patient with complicated urinary tract infection assessed as phlebitis at 500 […], iv administered every 8 hrs for 10 days; format: toxicity, organism-based, Urine; set-up: dose 500 […], route intravenous; settings: in vivo

Molecule `C[C@@H](O)[C@H]1C(=O)N2C(C(=O)O)=C(S[C@@H]3CN[C@H](CNS(N)(=O)=O)C3)[C@H](C)[C@H]12` [DORIPENEM] has an MIC (Enterococcus faecalis) of at least 16 µg/mL, an MIC (Enterococcus faecium) of at least 16 µg/mL and an MIC (Staphylococcus aureus) of at least 16 µg/mL. The Activity (Escherichia coli [1]) was 84.4%, the Activity (Escherichia coli [2]) was 55% and the Activity (Escherichia coli [3]) was 86%. The Activity (Klebsiella pneumoniae) was 83.3%, the Activity (Proteus mirabilis) was 69.6% and the MIC (Escherichia coli [4]) was 0.06 µg/mL (≈ 0.143 µM). It also gave an MIC (Serratia marcescens) of 0.5 µg/mL (≈ 1.19 µM), an MIC (Enterococcus avium) of 128 µg/mL (≈ 304 µM) and an Activity (Homo sapiens [5]) of 15.7%. The Activity (Homo sapiens [6]) was 5.9%, the Activity (Homo sapiens [7]) was 5.6% and the Activity (Homo sapiens [8]) was 5.1%. For the same molecule, the Activity (Homo sapiens [9]) was 4.5%, the Activity (Homo sapiens [10]) was 4.3% and the Activity (Homo sapiens [11]) was 3.7%. It also gave an Activity (Homo sapiens [12]) of 3.7%, an Activity (Homo sapiens [13]) of 3.7% and an Activity (Homo sapiens [14]) of 3.7%. It also gave an Activity (Homo sapiens [15]) of 2.1%, an Activity (Homo sapiens [16]) of 2.1% and an Activity (Homo sapiens [17]) of 1.9%. It also gave an Activity (Homo sapiens [18]) of 64%, an Activity (Homo sapiens [19]) of 28.2% and an Activity (Homo sapiens [20]) of 4.5%. For the same molecule, the Activity (Homo sapiens [21]) was 4%, the Activity (Homo sapiens [22]) was 0.5% and the Activity (Homo sapiens [23]) was 2.9%. For the same molecule, the Activity (Homo sapiens [24]) was 2.4%.

From ChEMBL document CHEMBL1687743, “Intravenous doripenem at 500 milligrams versus levofloxacin at 250 milligrams, with an option to switch to oral therapy, for treatment of complicated lower urinary tract infection and pyelonephritis” (Antimicrob Agents Chemother, 2009)
